In data set [1] the test system is human synovial cells (HFLS). The data set can be described thus: Anti-proliferative effect on synovial cells stimulated by TNF-α ([3H]-deoxyuridine uptake). The class given is cell-based. The note with it: TNF-α 10 ng/mL, 5 days culture, concentration calculated as MTX from conjugation rate. The text has this:
An effect of the HA-MTX conjugates of the invention on cell proliferation induced by TNF-α stimulation was examined using human synovial cells (HFLS). The main lesion in rheumatoid arthritis (RA) occurs in the synovial tissue, and, as one of the features, it is known that synovial cells abnormally proliferate to form a granulation tissue (pannus) and thereby destroy the cartilage and bone of the joint. Secondary synovitis is also observed in osteoarthritis (OA). […] Thus, a compound inhibiting the proliferation of synovial cells stimulated by the inflammatory cytokine TNF-α suppresses the progression of the pathologic conditions of RA and OA and becomes a therapeutic drug therefor. The sterile aqueous solutions of the HA-MTX conjugates in Example 2 (Table 2) were used as test substances. HFLS (CA40405, Lot Nos. 1413 and 1493) was purchased from Cell Applications Ins. for use. HFLS was seeded at 5,000 cells/well on a 96-well plate (Falcon) and cultured for 3 hours in Iscove's modified Dulbecco's medium (IMDM) containing 5% FBS and 1× Antibiotic-Antimycotic (GIBOC). After cellular attachment, TNF-α (final concentration: 10 ng/mL) and each HA-MTX conjugate at each concentration was added, followed by cultivation for 5 days. Two days before the end of culture, was added 37 kBq/well of [^3H]-deoxyuridine in the cells (MORAVEK), followed by determining the uptake quantity (radioactivity) of [^3H]-deoxyuridine using a scintillation counter. Cells were recovered by unsticking them with 0.05% trypsin-0.2% EDTA. Radioactivity determined in each of the experiments with each test substance was calculated as a relative value (% of control), using, as control, radioactivity in the group of cells cultured without adding any test substance. […] GraphPad Prism 3.02).

Data set [2] relates to mBSA-induced monoarthritis model. As to the kind of experiment: Suppressive effect on knee joint swelling in mBSA-induced monoarthritis model. The class given is in vivo, rat. The following applies: for AUC (% of control) (mean ± SEM): AUC of knee joint swelling to two weeks after induction, control = HA-treated group, 50 μL into right knee joint 7 and 1 day before and 7 days after induction. The protocol:
An in vivo synovitis-suppressing effect of each HA-MTX conjugate of the invention was assessed on the basis of a suppressive effect on knee joint swelling in a methylated bovine serum albumin (mBSA)-induced monoarthritis model of rat. Since the mBSA-induced arthritis model employed in this experimental example is widely used as an antigen-induced arthritis model, and known to develop synovitis (Sven E. Andersson, et al., The Journal of Rheumatology (1998) 25: 9, 1772-7), the in vivo knee joint swelling-suppressing effect observed in this model conceivably represents a synovitis-suppressing effect. The compounds of the invention suppressing synovitis in vivo are useful as therapeutic drugs for joint diseases accompanied by synovitis (RA, OA, and the like).
The animal used was the LEW/Crj rat (6-week old male, from Charles River Laboratories Japan, Inc.). Into the flank of the rat was subcutaneously injected 0.5 mL of an emulsion prepared from a 2 mg/mL mBSA (Calbiochem) aqueous solution and an equal amount of Freund's complete adjuvant (Difco) 21 and 14 days before inducing arthritis. The arthritis was induced by administering 50 μL of a 2 mg/mL mBSA aqueous solution into the right knee joint. The left knee joint was untreated, and served as control in each individual. Each test substance (sterile aqueous solution) and the control drug hyaluronic acid were each administered into the right knee joint in an amount of 50 μL 7 and 1 day before and 7 days after inducing arthritis.
The determination of knee joint swelling involved measuring the widths of both knee joints with calipers to define the left/right difference (right knee diameter-left knee diameter) as a knee joint swelling. The width of each knee joint was measured at a frequency of twice a week from immediately before inducing arthritis to two weeks later to calculate AUC (an abbreviation for Area Under the Curve; here, it means an area under a curve with time for the joint swelling) from the transition thereof with time. At each measurement, the mean and standard deviation of AUC were calculated to perform an unpaired t-test between each test substance-treated group and the HA-treated group, and significant difference was judged to be present if the probability level is less than 5%. Statistical analysis used SAS version 6.12 (SAS Institute Japan). In addition, the AUC of each test substance was calculated, using that in the HA-treated group as a control, as a relative value (% of control) therefor.
To verify the usefulness of the HA-MTX conjugate of the invention, the suppressive effect on joint swelling was compared, in accordance with the method of Example 3, among: 1) a group treated with the HA-MTX conjugate (sterile aqueous solution) prepared in Example 2-2; 2) a group treated with a solution containing MTX of an amount equal to that of MTX contained in the HA-MTX conjugate; and 3) a group of treated with a mixture (HA+MTX) of MTX and hyaluronic acid (HA) of amounts equal to those contained in the conjugate. The transition of knee joint swelling with time in this test is shown in FIG. 2, and the AUC thereof in FIG. 3.

Data set [3] is described as follows: Measurement of viscoelasticity. The class given is physicochemical. The following applies: sterile solutions, 37° C., cone 4 cm, CSL500 stress-controlled rheometer; FIG. 1. The protocol: The viscoelasticities of the sterile solutions of hyaluronic acids (molecular weights: 1,900,000 and 800,000) and the conjugates of Examples 2-1, 2-8, 2-18, 2-27, and 2-29 were measured at 37° C. using a cone 4 cm in diameter by a CSL500 stress-controlled rheometer (from Carri-Med Ltd.).

As usually defined, the IC50 is the concentration needed to halve the response being measured. For the molecule “MTX-α-PheβAla-NHC10H20O3NH-HA [Example 2-24]”, the IC50 in data set [1] is 3.5 µM.

As for “MTX-γ-PhePhe-NHC10H20O3NH-HA [Example 2-39]”, the IC50 in data set [1] is 3.2 µM.

On to “MTX-α-Trp-NHC10H20O3NH-HA [Example 2-32]”, for which the half-maximal inhibitory concentration (IC50) in data set [1] is 4.7 µM.

As for “MTX-α-Leu-NHC10H20O3NH-HA [Example 2-34]”, the IC50 in data set [1] is 3.6 µM.

As for “MTX-γ-PhePhe-NHC4H8ONH-HA [Example 2-41]”, in data set [2], the “AUC (% of control) (mean ± SEM)” value is listed as 67.1 ± 8.3 % of control.

In the case of MTX-α-PhePhe-NHC2H4NH-HA [Example 2-4], the IC50 in data set [1] was 11 µM. In data set [2], the “AUC (% of control) (mean ± SEM)” value is 69.0 ± 6.5 % of control.

In the case of “MTX-α-AsnPhePhe-NHC10H20O3NH-HA [Example 2-47]”, in data set [1], the IC50 is 1.1 µM. Moreover, the “AUC (% of control) (mean ± SEM)” value in data set [2] is 42.1 ± 6.3 % of control.

“MTX-α-PhePhe-NHC8H16O2NH-HA [Example 2-10]”: in data set [1], the half-inhibitory concentration (IC50) was 1.2 µM. For the same molecule, the “AUC (% of control) (mean ± SEM)” value in data set [2] is given as 63.7 ± 9.1 % of control.

For the molecule “MTX-α-PheGly-NHC10H20O3NH-HA [Example 2-17]”, the half-maximal inhibitory concentration (IC50) in data set [1] is 13 µM. Moreover, the “AUC (% of control) (mean ± SEM)” value in data set [2] is reported as 56.1 ± 8.2 % of control.

As for MTX-α-PhePhe-NHC2H4NH-HA [Example 2-6], the half-inhibitory concentration (IC50) in data set [1] is 0.091 µM. Also, the “AUC (% of control) (mean ± SEM)” value in data set [2] is 41.6 ± 7.6 % of control.

As for “MTX-α-Tyr-NHC10H20O3NH-HA [Example 2-31]”, the IC50 in data set [1] is 7 µM. In addition, the “AUC (% of control) (mean ± SEM)” value in data set [2] is reported as 67.7 ± 6.2 % of control.

On to “MTX-α-PheGly-NHC6H12O2NH-HA [Example 2-21]”, for which the IC50 in data set [1] was 0.83 µM. Besides, in data set [2], the “AUC (% of control) (mean ± SEM)” value is 47.4 ± 8.8 % of control.

For the molecule “MTX-α-PheGly-NHC8H16O2NH-HA [Example 2-20]”, the IC50 in data set [1] is 18 µM. The “AUC (% of control) (mean ± SEM)” value in data set [2] is 65.3 ± 9.6 % of control.

“MTX-α-PhePhe-NHC10H20O3NH-HA [Example 2-49]”: the IC50 in data set [1] is 13 µM.

Regarding “MTX-α-Phe-NHC10H20O3NH-HA [Example 2-26]”, the half-maximal inhibitory concentration (IC50) in data set [1] is 1.7 µM.

In the case of “MTX-γ-PheGly-NHC10H20O3NH-HA [Example 2-42]”, in data set [1], the concentration for half-maximal inhibition (IC50) is 14 µM.

Turning to “MTX-α/γ-GlyPheLeuGly-NHC10H20O3NH-HA (methotrexate-GFLG-{NHC10H20O3NH-hyaluronic acid}; also: methotrexate linked via α- or γ-carboxyl) [Example 2-48]”, the IC50 in data set [1] is 1.3 µM. Further, the “AUC (% of control) (mean ± SEM)” value in data set [2] is 58.8 ± 11.6 % of control.

For the molecule MTX-α-PhePhe-Lys-HA [Example 2-14], in data set [1], the IC50 was 15 µM. In addition, in data set [2], the “AUC (% of control) (mean ± SEM)” value was 54.3 ± 7.4 % of control.

As to MTX-α-PhePhe-NHC2H4NH-HA [Example 2-5], the IC50 in data set [1] was 1.1 µM. Further, in data set [2], the “AUC (% of control) (mean ± SEM)” value is on record as 51.7 ± 3.8 % of control.

For the molecule “MTX-α-PhePro-NHC10H20O3NH-HA [Example 2-23]”, the IC50 in data set [1] was 12 µM.

“MTX-α-Glu-NHC10H20O3NH-HA [Example 2-29]”: in data set [1], the 50% inhibitory concentration (IC50) was 8.4 µM. Moreover, the viscoelasticity result in data set [3] was “viscoelasticities intermediate between those of the hyaluronic acids having molecular weights of 800,000 and 1,900,000”. Also, the “AUC (% of control) (mean ± SEM)” value in data set [2] was 68.8 ± 6.7 % of control.

For MTX-α-PhePhe-NHC2H4NH-HA [Example 2-2′], the IC50 in data set [1] was 0.72 µM. The “AUC (% of control) (mean ± SEM)” value in data set [2] was 65.5 ± 7.5 % of control.

“MTX-α-PhePhe-NHC6H12O2NH-HA [Example 2-11]”: the half-maximal inhibitory concentration (IC50) in data set [1] was 0.25 µM.

Consider MTX-α-PhePhe-NHC2H4NH-HA [Example 2-7], for which, in data set [2], the “AUC (% of control) (mean ± SEM)” value is recorded as 46.5 ± 4.8 % of control.

With “MTX-α-PhePhe-NHC4H80NH-HA [Example 2-12]”, the IC50 in data set [1] was 0.3 µM.

Consider “MTX-α-PheβAla-NHC2H4NH-HA [Example 2-25]”, for which the IC50 in data set [1] is 0.29 µM.

Turning to “MTX-α-PhePhe-NHC5H10NH-HA [Example 2-13]”, the half-maximal inhibitory concentration (IC50) in data set [1] is 1.5 µM. Further, the “AUC (% of control) (mean ± SEM)” value in data set [2] is on record as 60.5 ± 9.9 % of control.

For MTX-α-Glu-NHC2H4NH-HA [Example 2-30], the half-inhibitory concentration (IC50) in data set [1] was 54 µM. Moreover, the “AUC (% of control) (mean ± SEM)” value in data set [2] is on record as 58.3 ± 7.4 % of control.

For the molecule MTX-α-PhePhe-NHC2H4NH-HA [Example 2-3], in data set [2], the “AUC (% of control) (mean ± SEM)” value was 76.2 ± 7.7 % of control.

As to “MTX-α-Val-NHC10H20O3NH-HA [Example 2-35]”, the IC50 in data set [1] was 11 µM.

“MTX-α-PheGly-NHC10H20O3NH-HA [Example 2-15]”: the IC50 in data set [1] is 0.48 µM.

“MTX-α-PheGly-NHC4H8ONH-HA [Example 2-22]”: in data set [1], the IC50 was 3 µM.

As for “MTX-α-βAla-NHC10H20O3NH-HA [Example 2-38]”, in data set [2], the “AUC (% of control) (mean ± SEM)” value was 69.3 ± 4.2 % of control.

Regarding “MTX-α-His-NHC10H20O3NH-HA [Example 2-36]”, the IC50 in data set [1] was 17 µM.

As for MTX-α-Ile-NHC2H4NH-HA [Example 2-28], the IC50 in data set [1] was 12 µM. Further, the “AUC (% of control) (mean ± SEM)” value in data set [2] was 63.5 ± 4.7 % of control.

For the molecule “MTX-α-Ser-NHC10H20O3NH-HA [Example 2-33]”, the concentration for half-maximal inhibition (IC50) in data set [1] was 36 µM.

For the molecule “MTX-α-PhePhe-NHC10H20O2NH-HA [Example 2-9]”, the IC50 in data set [1] was 1.3 µM.

Consider “MTX-α-PheGly-NHC10H20O3NH-HA [Example 2-16]”, for which the IC50 in data set [1] was 13 µM.

As to `CN(Cc1cnc2nc(N)nc(N)c2n1)c1ccc(C(=O)N[C@@H](CCC(=O)O)C(=O)O)cc1` [MTX alone, methotrexate], in data set [1], the IC50 is 0.055 µM. Also, the “suppressive effect on joint swelling / alleviating effect on synovitis” value in data set [2] (Experimental Example 4: conjugate vs equal amount of MTX vs mixture HA+MTX, FIGS. 2 and 3) is “neither MTX alone nor the mixture of HA and MTX had a sufficient alleviating effect on synovitis”.

Regarding “MTX-α-PheGly-NHC10H20O2NH-HA [Example 2-19]”, in data set [1], the IC50 was 5.4 µM.

These data come from patent publication US8088916B2, “Hyaluronic acid-methotrexate conjugate” (priority 2004, dated 2012).
